Results as given in US9403806B1, “Cognition enhancing compounds and compositions, methods of making, and methods of treating” (NeuroSolis, Inc., priority 2010, dated 2016).
Read-outs that look alike come from different tables or passages of the source.

Assays:
[1] = molecular target: T1, human muscarinic M1 receptors (Homo sapiens, UniProt P11229); assay: IP production in A9L cells with human M1 receptors (IPOne TR-FRET), Example 28; type: cell-based; settings: for huM1/A9L Smax: percentage of maximal stimulation by carbachol; for huM1/A9L ED50 relative to CCh*: potency relative to carbachol at its EC50, semi-quantitative
T1 construct: host or cells: A9L cells
T1 sequence (P11229 1-460): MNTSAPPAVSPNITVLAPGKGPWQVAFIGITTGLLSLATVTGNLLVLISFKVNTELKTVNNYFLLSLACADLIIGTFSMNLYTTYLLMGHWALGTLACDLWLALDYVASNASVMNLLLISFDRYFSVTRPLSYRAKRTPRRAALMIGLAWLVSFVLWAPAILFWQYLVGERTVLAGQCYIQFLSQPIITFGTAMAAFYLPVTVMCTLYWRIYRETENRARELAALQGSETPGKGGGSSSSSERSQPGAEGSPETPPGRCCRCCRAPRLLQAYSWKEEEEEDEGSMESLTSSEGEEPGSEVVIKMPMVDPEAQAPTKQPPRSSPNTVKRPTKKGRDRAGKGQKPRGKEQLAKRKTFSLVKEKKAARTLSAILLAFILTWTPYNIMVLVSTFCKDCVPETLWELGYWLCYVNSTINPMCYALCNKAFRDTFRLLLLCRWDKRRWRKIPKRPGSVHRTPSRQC
Description: (§1) Muscarinic M1 and M3 agonist activity was evaluated by measuring the stimulation of inositol phosphate (IP) production in the presence of lithium chloride from A9L cells transfected with expression plasmids containing human muscarinic M1 and M3 receptors, respectively. The cell lines were a gift from Professor W Messer, and the methods were as described in Tejada F R et al. J. Med. Chem. 2006; 49: 7518-31 except that the assay was scaled down to run in 384 well plates, and IP was measured in the cell lysates using the non-isotopic IPOne TR-FRET assay (CIS-BIO, Inc).
(§2) Cells were grown to 90% confluence in 384 well hi-base plates (Greiner Bio-One), compounds were added at suitable concentrations in growth medium containing 10 mM LiCl, buffered with an extra 10 mM HEPES (pH7.4), and incubated for 60 minutes at 37° C. Cells were lysed and assayed for IP following the manufacturer's instructions.
(§3) The value for a full agonist is 100%, while partial agonists give values below 100%.

[2] = molecular target: T2, human muscarinic M3 receptors (Homo sapiens, UniProt P20309); assay: IP production in A9L cells with human M3 receptors (IPOne TR-FRET), Example 28; type: cell-based; settings: for huM3/A9L Smax: percentage of maximal stimulation by carbachol; for huM3/A9L ED50 relative to CCh*: potency relative to carbachol at its EC50, semi-quantitative
T2 construct: host or cells: A9L cells
T2 sequence (P20309 whole entry): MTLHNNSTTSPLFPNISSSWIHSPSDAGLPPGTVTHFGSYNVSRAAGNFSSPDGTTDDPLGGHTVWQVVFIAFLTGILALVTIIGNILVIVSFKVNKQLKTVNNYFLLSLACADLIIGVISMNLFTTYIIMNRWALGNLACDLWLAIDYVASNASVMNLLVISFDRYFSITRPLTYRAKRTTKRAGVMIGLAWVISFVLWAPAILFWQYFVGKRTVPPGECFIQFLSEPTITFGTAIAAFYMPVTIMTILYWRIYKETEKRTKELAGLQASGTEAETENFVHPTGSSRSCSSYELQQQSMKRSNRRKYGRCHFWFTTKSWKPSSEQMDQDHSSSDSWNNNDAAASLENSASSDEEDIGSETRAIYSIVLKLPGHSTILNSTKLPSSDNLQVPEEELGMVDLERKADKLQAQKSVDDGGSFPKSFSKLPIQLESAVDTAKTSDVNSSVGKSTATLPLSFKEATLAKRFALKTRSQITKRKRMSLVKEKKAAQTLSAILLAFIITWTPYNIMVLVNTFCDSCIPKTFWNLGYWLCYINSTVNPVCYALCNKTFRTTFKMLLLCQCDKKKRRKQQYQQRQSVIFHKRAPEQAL
Description: as §1, §2, §3

[3] = test system: pooled male human liver microsomes; assay: Metabolism by human liver microsomes, Example 33; type: in vitro ADME; settings: for metabolism in human liver microsomes (in words): 6 hours incubation (FIGS. 4A, 4B); for rate of metabolism of S- versus R-enantiomer: human liver microsomes, as also in rat liver microsomes and FMO Supersomes
Description: Compounds were incubated with pooled male human liver microsomes (BD Biosciences, #452172) and an NADP-regenerating system in a phosphate buffer (pH 7.4) for a total of 6 hours. Aliquots were removed every 2 hours, and 1% formic acid was added to halt the reaction. Samples were centrifuged, filtered through 0.2 micron spinfilter and the amount of each compound in the supernatants was quantitated using LC/MS/MS.

[4] = molecular target: T1, human muscarinic M1 receptors; type: cell-based; settings: for huM1/A9L Smax: percentage of maximal stimulation by carbachol; for huM1/A9L Potency relative to carbachol: relative to the potency of carbachol at its EC50
Description: (§4) Muscarinic M1 and M3 agonist activity was evaluated by measuring the stimulation of inositol phosphate (IP) production in the presence of lithium chloride from A9L cells transfected with expression plasmids containing human muscarinic M1 and M3 receptors, respectively. The cell lines were a gift from Professor William Messer, and the methods were as described in Tejada et al. (J. Med. Chem. 2006; 49: 7518-31) except that the assay was scaled down to run in 384-well plates and the concentration of inositol-1-phosphate in the lysates was determined using the non-isotopic IP-One Terbium TR-FRET assay kit (Cisbio Bioassays, cat. #62IPAPEJ) according to the manufacturer's instructions.
as §2, with “384-well high-base, small-volume” for “384 well hi-base”, “(pH=7.4),” for “(pH7.4),”
as §3

[5] = molecular target: T2, human muscarinic M3 receptors; type: cell-based; settings: for huM3/A9L Smax: percentage of maximal stimulation by carbachol; for huM3/A9L Potency relative to carbachol: relative to the potency of carbachol at its EC50
Description: as §4
as §2, with “384-well high-base, small-volume” for “384 well hi-base”, “(pH=7.4),” for “(pH7.4),”
as §3

[6] = test system: muscarinic M1 receptors in the hippocampus; assay: In vivo inositol phosphate increase in hippocampus, Example 44; set-up: species or system Long Evans Hooded rats; settings: rat, 3 mg/kg sc, 5 mmole/kg LiCl
Description: (§5) In lithium chloride-treated laboratory rodents, engagement of muscarinic M1 receptors in the hippocampus may usefully be evaluated in vivo by measuring the increase in the tissue of inositol phosphate (Bymaster F P et al Brain Res 795 (1998) 179-190). This may also be extended to measure engagement of muscaric M3 receptors in the salivary glands.
(§6) Experimental compounds were administered subcutaneously at 3 mg/kg using standard techniques to Long Evans Hooded rats weighing 225 to 350 g, and which had been pretreated with a subcutaneous injection of lithium chloride at a suitable dose between 3 and 5 mmole/kg. At suitable times the animals were briefly anesthetized using 5% isoflurane and euthanized by decapitation. The brains and submaxillary salivary glands were rapidly dissected out, and the hippocampuses were dissected from the brains. The dissected tissues were homogenized in a suitable volume of ice-cold phosphate-buffered saline containing 10 mM lithium chloride (pH=7.4) using a tissue homogenizer, and used immediately or frozen in aliquots at −80° C. for future use. The concentration of inositol-1-phosphate was determined in the homogenates using the […] IP-One Terbium TR-FRET assay kit (Cisbio Bioassays, cat. #62IPAPEJ) according to the manufacturer's instructions.

[7] = test system: muscarinic M3 receptors in the salivary glands; assay: In vivo inositol phosphate increase in salivary glands, Example 44; set-up: species or system Long Evans Hooded rats; settings: rat, 3 mg/kg sc, 5 mmole/kg LiCl
Description: as §5, §6

[8] = test system: pooled male human liver microsomes; assay: Metabolism in human liver microsomes, Example 45; type: in vitro ADME
Description: Aliquots were removed every 2 hours, and 1% formic acid was added to halt the reaction. Samples were centrifuged, filtered through 0.2 micron spinfilter, and the amount of each compound in the supernatants was quantitated using LC/MS/MS as follows. The ultra-filtrates were subjected to reverse-phase liquid chromatography using a 150×2.1 mm Agilent C8-reverse phase column on a Shimadzu Prominence LC, eluting the compound with a gradient of 2%-50% acetonitrile+0.1% formic acid over 5 minutes. The concentration of the compound in the column effluent was measured using an Applied Biosystems API-3200 triple quadrupole mass spectrometer equipped with a Turbo V source (electrospray sample injection) system. The counts of the characteristic parent ions of the protonated compound and product ions were converted to concentration by comparison with a standard calibration curve. The parent/daughter ion pairs that were monitored for each compound were: 166.0/82.0 (105), 166.0/82.0 (106b), 166.0/82.0 (106a), 169.0/83.0 (136), 168.2/83.0 (121), 168.1/83.0 (122a), 168.1/83.0 (122b), 170.2/83.0 (134), 168.2/84.1 (135), 168.1/84.1 (137) and 169.2/82.1 (138).

in vitro = in vitro ADME; settings: pH 7.4, 24 hours, room temperature
Description: PAMPA is a useful in vitro model for predicting the passive diffusion of drugs across the blood-brain barrier (Li, D et al Eur jour of Med Chem 38 (2003) 223-232).
Compounds were diluted in a 100 mM phosphate buffer (pH 7.4) to a concentration of 400 μM and the stock solutions were placed into a 96-well filter plate (Millipore, #MAIPN4510) pre-wetted with 20 mg/mL porcine brain polar lipid extract in 100% dodecane (Avanti, #131022) and placed into a 96-well acceptor plate (Millipore, #MSSACCEPTOR) whose wells were filled with the same phosphate buffer as in the filter plate. This assembly was incubated at room temperature for 24 hours. The experiment was halted by separating the filter plate from the acceptor plate. Aliquots were removed from the filter plate wells, acceptor plate wells, and stock solutions, and 1% trifluoroacetic acid was added to each. All solutions were measured by LC/UV, and passive diffusion rates were calculated using the peak area values (Avdeef, Alex. 2003. Page 147 in Absorption and Drug Development. Hoboken, N.J.: John Wiley & Sons).

[9] = Blood and brain concentrations (rats), tail vein injection; type: in vivo, Long-Evans Hooded rats; settings: male, Long-Evans Hooded, rat, in vivo, 3 mg/kg, 3 mg/kg tail vein injection, read-out: Brain Concentration at 1 hr
Description: Long-Evans Hooded rats (Charles River: male, 230-300 g) were dosed with solutions of test compounds in PBS by tail vein injection. The dose for all compounds was 3 mg/kg. At one hour, the animals were anesthetized with isoflurane, and then euthanized by decapitation. Trunk blood was collected into a 1.5 mL microcentrifuge tube containing 15 U Heparin, and the plasma recovered after centrifugation. Brains were dissected, weighed, immediately chilled to 4° C., and homogenized using a PowerGen 125 homogenizer in five volumes of ice-cold 2% formic acid. Proteins were precipitated from plasma and brain homogenate with nine and five volumes respectively of ice-cold 2% formic acid and clarified by centrifugation. The supernatant was ultra-filtered by centrifugation through a 3K MWCO spin column (Pall Life Sciences), following the manufacturer's instructions. The concentration of compound in the ultra-filtrate was subjected to reverse-phase liquid chromatography using a 150×2.1 mm Agent C8 reverse-phase column on a Shimadzu Prominence LC, eluting the compounds with a gradient of 2% to 50% of acetonitrile+0.1% formic acid for all compounds. The concentration of the compound in the column effluent was measured using an Applied Biosystems API-3200 triple quadrupole mass spectrometer equipped with an electrospray sample injection system. The counts of the characteristic parent and product ions of each test compound were converted to concentration units by comparison with a standard curve.

Structure (SMILES)	huM1/A9L Smax [1] [%]	huM1/A9L ED50 relative to CCh* [1]	huM3/A9L Smax [2] [%]	huM3/A9L ED50 relative to CCh* [2]	metabolism in human liver microsomes (in words) [3]	rate of metabolism of S- versus R-enantiomer [3]	huM1/A9L Smax [4] [%]	huM1/A9L Potency relative to carbachol [4]	huM3/A9L Smax [5] [%]	huM3/A9L Potency relative to carbachol [5]	Increase in Inositol Phosphate in Hippocampus/Control ([6]; 3 mg/kg) [%]	Increase in Inositol Phosphate in Salivary Gland/Control ([7]; 3 mg/kg) [%]	Loss at 6 hrs (%) [8] [%]	PAMPA Permeability Coefficient (×10^6) (in vitro; 400 μM)	concentration at 1 h [9] [µM]	Increase in Inositol Phosphate in Hippocampus/Control [6] [%]	Increase in Inositol Phosphate in Salivary Gland/Control [7] [%]	Papp at 24 h, 400 µM (in vitro; PAMPA, pH 7.4, 400 μM, read-out: PAMPA Permeability Coefficient (×10^6)) [×10⁻⁶ cm/s]
Cc1noc([C@H]2CCCNC2)n1 [Compound 3a, S-(+)-3-methyl-5-(piperidin-3-yl)-1,2,4-oxadiazole]	129	+ (+ potency 2-10x CCh)	66	+/− (+/− potency 0.5-2x CCh)	metabolized significantly less in human liver microsomes than in rat liver microsomes	metabolized faster than the R-enantiomers	–	–	–	–	–	–	–	–	–	–	–	–
Cc1noc([C@@H]2CCCNC2)n1 [Compound 3b, R-(−)-3-methyl-5-(piperidin-3-yl)-1,2,4-oxadiazole]	147	+/− (+/− potency 0.5-2x CCh)	47	− (− potency <0.5-0.1x CCh)	metabolized significantly less in human liver microsomes than in rat liver microsomes	–	–	–	–	–	–	–	–	–	–	–	–	–
[2H]C([2H])([2H])c1noc([C@H]2CCCNC2)n1 [Compound 7a, S-(+)-3-D3-methyl-5-(piperidin-3-yl)-1,2,4-oxadiazole]	81	+/− (+/− potency 0.5-2x CCh)	76	−− (−− potency <0.1x CCh)	metabolized significantly less in human liver microsomes than in rat liver microsomes	metabolized faster than the R-enantiomers	–	–	–	–	–	–	–	–	–	–	–	–
[2H]C([2H])([2H])c1noc([C@@H]2CCCNC2)n1 [Compound 7b, R-(−)-3-D3-methyl-5-(piperidin-3-yl)-1,2,4-oxadiazole]	90	+ (+ potency 2-10x CCh)	86	+/− (+/− potency 0.5-2x CCh)	metabolized significantly less in human liver microsomes than in rat liver microsomes	–	–	–	–	–	–	–	–	–	–	–	–	–
[2H]C([2H])([2H])c1noc(C23CNC([2H])([2H])C2C3)n1 (stereo not shown) [Compound 137, 5-(6,6-d2-3-azabicyclo[3.1.0]hexan-1-yl)-3-methyl-1,2,4-oxadiazole]	–	–	–	–	–	–	97	1.26	62	0.19	503	198	24	4.00 ×10^6	5.5	–	–	–
[2H]C([2H])([2H])c1noc(C23CNCC2C3)n1 (stereo not shown) [Compound 138, 5-(3-azabicyclo[3.1.0]hexan-1-yl)-3-methyl-d3-1,2,4-oxadiazole]	–	–	–	–	–	–	93	1.34	43	0.37	–	–	29	–	5.5	357	217	4.1
